Test results published in US10906977B2, “Enhancing the therapeutic activity of immune checkpoint inhibitor” (Maine Medical Center Research Institute, priority 2016, dated 2021).

Legend:
[1] = test system: chick chorioallantoic membrane (CAM); experiment: Chick CAM angiogenesis induced by soluble RGD collagen peptides; type: in vivo
Procedure: (§1) The chick chorioallantoic membrane (CAM) assays were carried out with some modifications (19). For all experiments CAMs of 10-day-old chick embryos obtained from Charles River (North Franklin, Conn.) were separated from the shell membrane. Filter discs either non-treated (inflammation assays) pretreated (angiogenesis assays) with cortisone acetate (3.0 mg/ml) containing RPMI only or FGF-2 (40 ng). CAMs were either non-treated or treated topically with Mab XL313, XL166 or a non-specific control antibody (10 μg/embryo every 24 h for three consecutive treatments). […] At the end of the incubation period the embryos were sacrificed and the CAM tissues were analyzed. Angiogenesis was quantified by counting the number of angiogenic branching blood vessels within the area of the filter disc. The angiogenic index was determined by subtracting the mean number of blood vessel branch points from untreated CAMs from each experimental condition. Eight to twelve embryos were used per condition and experiments were repeated at least three times.

YAP = experiment: Nuclear YAP in P-2 stimulated endothelial cells with Src or P38MAPK inhibitor; type: cell-based, human; settings: inhibitor 10 μM; as compared to control; FIG. 8E, 8F
Procedure: (§2) Endothelial cells (HUVECs or HRMVECs) were incubated in serum free media with 1 mM MgCl2, 0.2 mM MnCl2 in the presence of a Src inhibitor, PP2, (10 μM) a P38MAPK inhibitor, SB202190 (10 μM) or vehicle only (DMSO) for 10 min at 37° C. Treated cells were then seeded on to immobilized P-1 and P-2 and lysates were collected at 15 min.
(§3) Whole cell and CAM tissue lysates were collected in RIPA buffer supplemented with 1× protease inhibitor and 1× phosphatase inhibitor and were run on polyacrylamide gels using denaturing conditions. Prior to loading the gels, 6× sample buffer was added to each of the lysates (final concentration 1×) and boiled for five minutes. Twenty to 50 μg of total protein were loaded into each lane. […] Gels were run at 60 volts (v) until the dye front passed through the stacking gel, and then the voltage was increased to 100V for the remainder of the separation. Precision Plus protein standards (Bio-Rad) were used to visualize migration. Protein was transferred to nitrocellulose membranes using a wet tank system and blocked for 1 h using 10% non-fat dried milk in tris-buffered saline with 0.01% Tween-20 (TBS-T). […] Membranes were washed 3 times in TBS-T for five minutes. Blots were then incubated with HRP conjugated secondary antibodies (1:15000) in 1% non-fat milk in TBS-T for 1 h. […] Western blot bands were quantified using Image J software based on pixel intensity.

P38MAPK = experiment: Phosphorylated P38MAPK in HUVECs attached to collagen peptides (Western blot); type: cell-based, human; settings: Src inhibitor PP2 10 μM; FIG. 7F
Procedure: as §2, §3

β3-integrin = molecular target: T1, β3-integrin (Homo sapiens, UniProt P05106+P06756); experiment: β3-integrin phosphorylation in endothelial cells attached to collagen peptides (Western blot); type: cell-based; settings: Src inhibitor PP2 10 μM; FIG. 7E
T1 construct: endogenous in cells; host or cells: HUVEC
T1 sequence (P05106 27-788): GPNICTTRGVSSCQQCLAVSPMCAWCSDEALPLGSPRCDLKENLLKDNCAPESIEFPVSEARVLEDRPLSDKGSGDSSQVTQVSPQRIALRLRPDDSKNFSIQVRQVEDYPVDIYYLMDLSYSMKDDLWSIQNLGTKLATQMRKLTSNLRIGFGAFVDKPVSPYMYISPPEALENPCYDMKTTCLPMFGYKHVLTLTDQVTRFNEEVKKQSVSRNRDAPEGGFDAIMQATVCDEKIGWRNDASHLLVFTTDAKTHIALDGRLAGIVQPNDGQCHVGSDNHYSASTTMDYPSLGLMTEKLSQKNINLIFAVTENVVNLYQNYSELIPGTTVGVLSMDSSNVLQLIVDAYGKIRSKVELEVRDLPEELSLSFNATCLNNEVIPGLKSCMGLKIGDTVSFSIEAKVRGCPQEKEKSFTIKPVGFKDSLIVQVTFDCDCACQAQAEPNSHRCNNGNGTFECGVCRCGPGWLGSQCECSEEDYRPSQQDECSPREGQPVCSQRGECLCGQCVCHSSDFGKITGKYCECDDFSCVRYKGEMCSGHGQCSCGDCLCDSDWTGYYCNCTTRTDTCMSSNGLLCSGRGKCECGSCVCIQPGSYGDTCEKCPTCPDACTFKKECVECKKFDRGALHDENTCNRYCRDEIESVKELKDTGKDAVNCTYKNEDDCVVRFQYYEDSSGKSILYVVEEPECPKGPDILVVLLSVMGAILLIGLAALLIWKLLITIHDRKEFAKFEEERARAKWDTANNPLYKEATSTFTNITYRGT
T1 sequence (P06756 31-889 limits assumed): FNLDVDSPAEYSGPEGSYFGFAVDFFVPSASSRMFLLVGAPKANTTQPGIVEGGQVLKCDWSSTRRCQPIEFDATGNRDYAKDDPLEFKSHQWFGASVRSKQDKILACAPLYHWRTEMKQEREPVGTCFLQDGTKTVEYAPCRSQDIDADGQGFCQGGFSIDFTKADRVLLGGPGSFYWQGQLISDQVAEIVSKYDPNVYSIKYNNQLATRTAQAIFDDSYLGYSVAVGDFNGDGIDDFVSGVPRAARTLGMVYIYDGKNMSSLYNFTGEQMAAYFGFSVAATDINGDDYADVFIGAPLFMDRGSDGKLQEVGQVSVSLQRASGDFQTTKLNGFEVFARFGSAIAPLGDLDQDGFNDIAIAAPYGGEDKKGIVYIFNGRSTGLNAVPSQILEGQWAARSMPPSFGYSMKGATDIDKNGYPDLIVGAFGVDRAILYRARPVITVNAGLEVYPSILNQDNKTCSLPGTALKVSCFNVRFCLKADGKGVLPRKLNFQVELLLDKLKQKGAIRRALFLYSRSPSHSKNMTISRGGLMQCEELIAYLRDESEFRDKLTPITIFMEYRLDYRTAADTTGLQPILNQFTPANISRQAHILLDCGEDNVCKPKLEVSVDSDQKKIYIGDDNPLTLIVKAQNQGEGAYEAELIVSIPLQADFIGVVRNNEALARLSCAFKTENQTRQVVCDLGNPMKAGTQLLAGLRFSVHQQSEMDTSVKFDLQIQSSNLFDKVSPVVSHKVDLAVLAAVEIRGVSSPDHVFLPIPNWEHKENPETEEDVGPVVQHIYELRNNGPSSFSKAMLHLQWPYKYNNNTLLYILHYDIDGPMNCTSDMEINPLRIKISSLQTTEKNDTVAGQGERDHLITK
T1 sequence (P06756 891-1048 partner limits assumed): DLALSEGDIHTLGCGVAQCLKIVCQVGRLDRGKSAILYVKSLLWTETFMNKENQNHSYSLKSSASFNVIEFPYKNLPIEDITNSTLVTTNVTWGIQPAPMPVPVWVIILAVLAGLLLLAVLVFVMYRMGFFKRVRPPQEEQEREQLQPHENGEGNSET
Procedure: as §2, §3

[2] = test system: chick chorioallantoic membrane (CAM); experiment: Chick CAM inflammation assay, FGF-2 induced, no cortisone acetate; type: in vivo; settings: FGF-2 induced; vs no treatment or control antibody; FIG. 3E
Procedure: The chick chorioallantoic membrane (CAM) assays were carried out with some modifications (19). For all experiments CAMs of 10-day-old chick embryos obtained from Charles River (North Franklin, Conn.) were separated from the shell membrane. Filter discs either non-treated (inflammation assays) pretreated (angiogenesis assays) with cortisone acetate (3.0 mg/ml) containing RPMI only or FGF-2 (40 ng). CAMs were either non-treated or treated topically with Mab XL313, XL166 or a non-specific control antibody (10 μg/embryo every 24 h for three consecutive treatments). For peptide induction experiments, CAMs were stimulated with 100 ng/ml of the RGD peptides (P-1, P-2, P-C) in the presence or absence of the P38MAPK inhibitor, SB202190 (10 μM). At the end of the incubation period the embryos were sacrificed and the CAM tissues were analyzed. Angiogenesis was quantified by counting the number of angiogenic branching blood vessels within the area of the filter disc. The angiogenic index was determined by subtracting the mean number of blood vessel branch points from untreated CAMs from each experimental condition. Eight to twelve embryos were used per condition and experiments were repeated at least three times.
CAMs examined for accumulation of granulation tissue were harvested, fixed in 4% PFA and paraffin embedded and sectioned (4 μm) and stained with Giemsa. CAM tissues analyzed via immunofluorescence were harvested, embedded with OCT, snap frozen and sectioned ([…]). Frozen sections were fixed in 50% methanol/50% acetone, air dried and blocked with 2.5% BSA for 1 h at 37° C. For expression of the XL313 and XL166 epitopes as well as monocyte/macrophages, FGF-2 stimulated CAM tissues were stained with Mabs XL313, XL166 (50 μg/ml) or KUL1 (1:250) and then incubated with Alexa-488 labeled secondary antibodies (1:2000 dilution). […] Using a similar strategy, sections of RGD peptide-treated CAM tissues were analyzed for phosphorylated-P38MAPK in angiogenic vessels by co-incubation of anti-phospho-P38MAPK (1:50) and anti-vWf (1:500) antibodies. […]

[3] = test system: chick chorioallantoic membrane (CAM); experiment: Chick CAM inflammation induced by soluble RGD collagen peptides; type: in vivo; settings: FIG. 5D
Procedure: as §1

Fak = Fak phosphorylation in endothelial cells attached to collagen peptides; type: cell-based, human; settings: serum free conditions
Procedure: Whole cell and CAM tissue lysates were collected in RIPA buffer supplemented with 1× protease inhibitor and 1× phosphatase inhibitor and were run on polyacrylamide gels using denaturing conditions. Prior to loading the gels, 6× sample buffer was added to each of the lysates (final concentration 1×) and boiled for five minutes. Twenty to 50 μg of total protein were loaded into each lane. For detection of proteins larger than 50 kD, 10% gels were used; for proteins smaller than 50 kD 15% gels were used. Gels were run at 60 volts (v) until the dye front passed through the stacking gel, and then the voltage was increased to 100V for the remainder of the separation. Precision Plus protein standards (Bio-Rad) were used to visualize migration. Protein was transferred to nitrocellulose membranes using a wet tank system and blocked for 1 h using 10% non-fat dried milk in tris-buffered saline with 0.01% Tween-20 (TBS-T). […] Western blot bands were quantified using Image J software based on pixel intensity.

HRMVEC = experiment: Endothelial cell proliferation with soluble RGD peptides; type: cell-based, human; settings: 100 ng/ml, 24 hours; FIG. 8D
Procedure: (§4) HUVECs (WT, shYAP1 or control transfected) or HRMVECs were plated at 2,000 cells per well with complete EGM-2 media containing 2.0% FBS in the absence or presence of P-1, P-2 or P-C (100 ng/ml) and allowed to grow for 24 hours. Cell growth was monitored using a BrdU or MMT assay kits according to manufacturer's instructions. All assays were completed at least three times in triplicate wells.

HUVEC = experiment: as above; type: cell-based, human; settings: 100 ng/ml, 24 hours; FIG. 8C
Procedure: as §4

[4] = test system: endothelial cells transduced with YAP specific or non-specific shRNAs; experiment: Growth of shRNA transduced endothelial cells with soluble RGD peptides; type: cell-based, human; settings: non-specific shRNA; FIG. 8G
Procedure: as §4
Raw cells were transfected with 1 μg of HuSH shRNA plasmids for collagen type I, alpha 2 using Amaxa cell line nucleofector kit V (program #T024). Constructs expressing 21-nucleotide short hairpin RNAs (shRNA) targeting human YAP (shYAP) or non-targeting control (shNT, Sigma-Aldrich, SHC002) were used. Humantargeting shYAP1 lentiviral shRNA was obtained from the Thermo Scientific RNAi consortium (TRCN0000107625). Constructs were packaged into lentivirus, pseudotyped with the vesicular stomatitis virus glycoprotein. Transduction was performed by incubating cells with lentivirus, and stably transduced cells were subsequently used for studies. All cell lines were verified by morphology and mouse and human YAP-specific PCR. […] Endothelial cells were certified mycoplasma-negative by PCR (Lonza), and primary cell cultures were used within the indicated passage numbers. Cells were transduced and selected using puromycin.

[5] = test system: human umbilical vein endothelial cell (HUVEC); experiment: Cell adhesion to immobilized collagen RGD peptides; type: cell-based; settings: peptide immobilized 100 μg/ml; FIG. 1A
Procedure: RGD peptides (P-1, P-2, P-3, P-4, P-5, and P-C) were immobilized (100 μg/ml) to wells. HUVEC, HMVEC, HRMVEC, and HDF cells were suspended in adhesion buffer (RPMI containing 1 mM MgCl2, 0.2 mM MnCl2 and 0.5% BSA) and 1×10^5 cells were seeded into the wells in the presence or absence of P4C10, LM609, P1F6 or control antibodies (100 μg/ml). Cells were allowed to attach for 25 min at 37° C. Media containing non-attached cells was aspirated and attached cells were washed with PBS and stained with crystal violet. Cell adhesion was quantified by measuring the optical density of eluted dye. Adhesion assays were completed at least three times with triplicate wells.

[6] = molecular target: Denatured collagen (collagen type-I boiled 15 minutes) (UniProt P02452); experiment: cell-based or functional assay
[7] = molecular target: Denatured collagen (collagen type-I boiled 15 minutes) (UniProt P02452); experiment: integrin blocking ELISA; denatured collagen wells pre-treated with anti-HU177 (0.1 µg/ml); competitor α2β1 (2.0 µg/ml)
[8] = molecular target: Denatured collagen (collagen type-I boiled 15 minutes) (UniProt P02452); experiment: integrin blocking ELISA; denatured collagen wells pre-treated with anti-HU177 (0.1 µg/ml); competitor α10β1 (2.0 µg/ml)
[9] = molecular target: integrin αvβ3 on cells (HUVEC endothelial cells, M21 melanoma cells, human T-cells) (human, UniProt P06756 31-1048; P05106 27-788); experiment: cell-based or functional assay
Chain of integrin αvβ3 on cells (HUVEC endothelial cells, M21 melanoma cells, human T-cells) (P06756 31-1048, chain 1 of 2): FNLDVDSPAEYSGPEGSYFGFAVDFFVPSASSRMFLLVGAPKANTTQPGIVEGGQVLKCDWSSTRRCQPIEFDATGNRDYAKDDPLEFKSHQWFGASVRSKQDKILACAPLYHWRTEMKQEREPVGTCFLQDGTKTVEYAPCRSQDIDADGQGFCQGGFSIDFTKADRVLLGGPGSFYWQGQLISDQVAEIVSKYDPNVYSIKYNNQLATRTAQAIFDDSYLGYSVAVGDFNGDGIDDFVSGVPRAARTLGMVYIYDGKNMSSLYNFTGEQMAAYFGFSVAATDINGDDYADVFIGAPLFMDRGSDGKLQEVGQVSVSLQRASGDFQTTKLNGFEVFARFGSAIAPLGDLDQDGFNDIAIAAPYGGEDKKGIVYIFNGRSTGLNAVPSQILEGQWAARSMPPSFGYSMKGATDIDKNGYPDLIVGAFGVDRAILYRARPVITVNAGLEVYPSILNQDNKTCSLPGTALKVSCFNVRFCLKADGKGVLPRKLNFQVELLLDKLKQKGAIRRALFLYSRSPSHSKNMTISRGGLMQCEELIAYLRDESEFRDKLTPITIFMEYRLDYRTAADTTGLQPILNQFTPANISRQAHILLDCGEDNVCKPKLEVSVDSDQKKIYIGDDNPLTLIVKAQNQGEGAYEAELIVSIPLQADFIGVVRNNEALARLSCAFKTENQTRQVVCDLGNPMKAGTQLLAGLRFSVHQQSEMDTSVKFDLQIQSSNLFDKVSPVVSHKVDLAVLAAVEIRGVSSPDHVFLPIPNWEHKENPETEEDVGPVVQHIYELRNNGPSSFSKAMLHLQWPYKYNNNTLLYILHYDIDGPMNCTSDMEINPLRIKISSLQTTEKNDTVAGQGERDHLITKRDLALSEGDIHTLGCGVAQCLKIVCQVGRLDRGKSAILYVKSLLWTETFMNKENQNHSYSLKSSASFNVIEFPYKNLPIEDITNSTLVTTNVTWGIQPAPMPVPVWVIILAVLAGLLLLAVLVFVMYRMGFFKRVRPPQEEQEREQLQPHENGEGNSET
Chain of integrin αvβ3 on cells (HUVEC endothelial cells, M21 melanoma cells, human T-cells) (P05106 27-788, chain 2 of 2): as the sequence (P05106 27-788) above

## Oc1ccc(-c2nc(-c3ccncc3)c(-c3ccc(F)cc3)[nH]2)cc1 [P38MAPK inhibitor, SB202190, reference compound]
[1]; SB202190 10 μM, FIG. 6F
  effect on P-2 induced angiogenesis in vivo: reduced
YAP
  reduction of nuclear YAP accumulation following P-2 stimulation: approximately 50%

## CC(C)(C)n1nc(-c2ccc(Cl)cc2)c2c(N)ncnc21 [Src inhibitor, PP2, reference compound]
P38MAPK
  P38MAPK phosphorylation following binding to collagen peptide P-2: reduced
β3-integrin
  β3 phosphorylation following binding to collagen peptide P-2: reduced
YAP
  reduction of nuclear YAP accumulation following P-2 stimulation: approximately 50%

## CC(=O)OCC(=O)[C@@]1(O)CC[C@H]2[C@@H]3CCC4=CC(=O)CC[C@]4(C)[C@H]3C(=O)C[C@@]21C [cortisone acetate]
[2]
  reduction of the percentage of CAMs exhibiting thickening / inflammation: greater than 80%

## CKGDRGDAPGC [Mab P-1, RGDAPG containing collagen type-I peptide (…) with flanking cysteines]
[1]; soluble peptide, FIG. 5C
  induction of CAM angiogenesis as compared to no treatment: not
[3]
  CAM inflammation following stimulation with peptide: Minimal evidence of tissue inflammation
Fak
  Fak phosphorylation following ligation of peptide: Minimal Fak phosphorylation
HRMVEC
  HRMVEC growth with soluble peptide: minimal effect
HUVEC
  HUVEC growth with soluble peptide: minimal effect
[4]
  growth of control transduced endothelial cells with soluble peptide: not

## CRGPRGDQGPC [Mab P-5]
[5]
  HUVEC adhesion to immobilized peptide: highest levels of adhesion

## Mab HU177 (antibody)
[6]
  basal migration of SKOV-3 cells and fibroblasts on denatured collagen: 35 to 38%
  decrease in SKOV-3 cell adhesion to denatured collagen: 40%
  decrease in fibroblast adhesion to denatured collagen: 50%
[7]
  percent inhibition of α2β1 binding to denatured collagen: 30%
[8]
  percent inhibition of α10β1 binding to denatured collagen: 60%

B1: Synthetic collagen RGD containing peptide P-2 (CQGPRGDKGEC) (peptide)
peptide: CQGPRGDKGEC
[9]
  Src phosphorylation in endothelial cells attached to the peptide (Western blot): ~2 fold
  β3-integrin phosphorylation in endothelial cells attached to the peptide (Western blot): > 3 fold
